{"source": "patent US20070287931A1", "about": "“Methods and systems for administering an appropriate pharmacological treatment to a patient for managing epilepsy and other neurological disorders” (priority 2006, published 2007)", "origin": "cited, not measured here", "key": {"[1]": {"details": "for plasma concentration per daily dose of 1 mg/kg of primidone: per daily dose of 1 mg/kg of primidone; for plasma concentration per daily dose of 1 mg/kg: per daily dose of 1 mg/kg"}, "sodium channels": {"system": "sodium channels", "details": "in vitro"}, "T-type Ca^2+ currents": {"system": "T-type Ca^2+ currents", "details": "in vitro"}, "[2]": {"system": "GABA/benzodiazepine receptor ionophore complex", "details": "in vitro"}, "[3]": {"system": "cultured mouse spinal cord neurons", "details": "10-30 μg/mL"}, "rat hippocampal slices": {"system": "rat hippocampal slices", "details": "10-30 μg/mL"}, "[4]": {"system": "dopaminergic and serotonergic neurotransmission", "details": "in vivo microdialysis"}, "partial seizures": {"system": "partial seizures", "details": "controlled trials, adjunctive therapy of partial seizures in adults, oral"}, "seizure": {"system": "seizure", "details": "intranasal"}, "[5]": {"details": "intranasal"}}, "note": "Like-named read-outs stand apart in the source and are kept apart here.", "data": [{"compound": "CCC1(c2ccccc2)C(=O)NCNC1=O", "note": "[primidone, Primidone]", "values": [{"measurement": "plasma concentration per daily dose of 1 mg/kg of primidone", "setting": "[1]; long term therapy", "result": "about 1 μg/ml"}]}, {"compound": "NS(=O)(=O)Cc1noc2ccccc12", "note": "[zonisamide, 1,2-benzisoxazole-3-methanesulfonamide]", "values": [{"measurement": "effect on sodium channels", "setting": "sodium channels", "result": "blocks sodium channels"}, {"measurement": "effect on voltage-dependent, transient inward currents (T-type Ca2+ currents)", "setting": "T-type Ca^2+ currents", "result": "reduces voltage-dependent, transient inward currents"}, {"measurement": "binding to the GABA/benzodiazepine receptor ionophore complex", "setting": "[2]", "result": "binds to the GABA/benzodiazepine receptor ionophore complex in an allosteric fashion which does not produce changes in chloride flux"}, {"measurement": "postsynaptic GABA or glutamate responses", "setting": "[3]", "result": "without affecting"}, {"measurement": "synaptically-driven electrical activity", "setting": "[3]", "result": "suppresses synaptically-driven electrical activity"}, {"measurement": "neuronal or glial uptake of [3H]-GABA", "setting": "rat hippocampal slices", "result": "without affecting"}, {"measurement": "dopaminergic and serotonergic neurotransmission", "setting": "[4]", "result": "facilitates both dopaminergic and serotonergic neurotransmission"}, {"measurement": "effective doses", "setting": "partial seizures", "result": "100 to 600", "unit": "mg/day"}, {"measurement": "carbonic anhydrase inhibiting activity", "setting": "carbonic anhydrase", "result": "weak"}]}, {"compound": "CCC1(c2ccccc2)C(=O)NC(=O)NC1=O", "note": "[phenobarbital, Phenobarbital]", "values": [{"measurement": "plasma concentration per daily dose of 1 mg/kg", "setting": "[1]; long term therapy, adults", "result": "about 10 μg/ml"}, {"measurement": "plasma concentration per daily dose of 1 mg/kg of primidone", "setting": "[1]; long term therapy", "result": "about 2 μg/ml"}]}, {"compound": "O=C1NC(=O)C(c2ccccc2)(c2ccccc2)N1", "note": "[Phenyloin, diphenylhydantoin]", "values": [{"measurement": "concentrations giving chronic control of seizures", "setting": "seizures", "result": "above 10 μg/ml"}, {"measurement": "concentrations at which toxic effects such as nystagmus develop", "result": "around 20 μg/ml"}]}, {"compound": "CCC1(C)CC(=O)NC1=O", "note": "(stereo not drawn) [ethosuximide, Ethosuximide]", "values": [{"measurement": "plasma concentration per daily dose of 1 mg/kg", "setting": "[1]; long-term therapy", "result": "about 2 μg/ml"}]}, {"compound": "Cc1ncc2n1-c1ccc(Cl)cc1C(c1ccccc1F)=NC2", "note": "[Midazolam]", "values": [{"measurement": "time to terminate a seizure", "setting": "seizure", "result": 30, "unit": "s"}, {"measurement": "KA (absorption rate constant)", "setting": "[5]", "result": 2.46, "unit": "h⁻¹"}, {"measurement": "tE1/2 (elimination half-life)", "setting": "[5]", "result": 3.1, "unit": "h"}]}]}
